Results from article PMC4798767, “Hydrophobicity of Antifungal β-Peptides Is Associated with Their Cytotoxic Effect on In Vitro Human Colon Caco-2 and Liver HepG2 Cells” (PLoS ONE, 2016).
≈ marks a conversion by molar mass, not a printed value. Entries after “also recorded” stand apart in the source; their conditions may differ. Blank lines part the entries; values can stand above or below the compound they belong to.

Columns and labels:
[1] = tested on: HepG2 cells; test: Clonogenic assay, long-term effect; type: cell-based; conditions: HepG2, 20 μg/mL for 24 hours
Method: (§1) HepG2 and Caco-2 were tittered from a culture at 70–80% confluence. HepG2 and Caco-2 cells were seeded at 13,000 and 9,000 cells, respectively, in a clear flat bottom 96-well plate with dark walls (Corning, NY, USA). Then they were allowed to adhere and proliferate in DMEM for 48 hours. Agents were prepared under the following conditions: β-peptides were dissolved and diluted in DMEM to the final working concentration; while AmpB and Keto were first dissolved in DMSO as a vehicle. The DMSO concentration was kept under 0.5% v/v in the experimental sample as well as in the untreated control cell media. Cells were exposed to the agent during 24 hours. Afterwards, the cells were washed two times with Hank’s Balanced Salt Solution (HBSS). Then, fresh DMEM was added to each plate and incubated until the control reached approximately 90% confluency. Cell viability was determined using CellTiter Blue™ (Promega, WI, USA), an assay based on the capacity of cells to reduce resazurin to resorufin, a fluorescent product whose intensity is proportional to the viable cells in the sample. […] After incubation, the fluorescence was measured using a Spectra Max Gemini EM spectrofluorometer (560Ex/590Em) (Sunnyvale, CA, USA). The long-term effect of the treatments with β-peptides was assessed using the model peptide (ACHC-β3hV-β3hK) in a clonogenic assay. In these assays, 1.25x10^5 and 9x10^4 cells/ml from HepG2 and Caco-2, respectively, were seeded in a 25cm^2 flask. The media was changed every two days. Once cells reached a confluence between 70–80%, they were treated in the flask with (ACHC-β3hV-β3hK) at 20 μg/mL in DMEM, a sub-lethal concentration, for 24 hours. They were then washed two times with PBS and allowed to recover in fresh medium for six hours, followed by trypsinization and tittering.
(§2) The long-term cytotoxic effect of β-peptides was evaluated using clonogenic assays (see Fig F in S1 File). In order to validate the data obtained from the dose-response curves for Caco-2 and HepG2, (ACHC-β3hV-β3hK) was selected as a β-peptide model to perform these assays due to its well-established biological activity against C. albicans, its hemolytic activity, and, with this study, its effect on HepG2 and Caco-2. A constant concentration of 20 μg/mL was chosen for these experiments. The chosen concentration of (ACHC-β3hV-β3hK) falls within the range of concentrations used in short-term assays, where 20 μg/mL of this β-peptide assured that both of the cell lines were affected to the same extent.

[2] = tested on: Caco-2 cells; test: Clonogenic assay, long-term effect; type: cell-based; conditions: Caco-2, 20 μg/mL for 24 hours
Method: as §1, §2

[3] = tested on: HepG2 cells; test: cells; type: cell-based, human; conditions: for IC50 HepG2: 24 h
Method: as §1
(§3) In vitro cytotoxicity assessments for HepG2 and Caco-2 were performed two independent times, each with four replicates (n = 8). A multivariate study of the data was performed through PCA to ascertain the impact of increasing β-peptide hydrophobicity on the viability of the treated cells. PCA was done using XLSTAT 2014 trial version, under a Pearson approach. The input matrix set to the program consisted of eleven rows and four columns of data. The first column contained the concentrations tested and the remainder columns contained the viability ratio obtained after exposure to the β-peptides #4, #5, and #16 (see Fig 1ii). The data of β-peptide #21 was not used in this analysis due to structural differences (lack of ACHC residues), which affects the molecule’s helicity. The ratio IC50/MICaver represents the selectivity of the β-peptides for the fungal cells over that of host cells, termed selectivity index (SI). For the purpose of the present study the SIs were calculated based on MICs for C. albicans published previously.

[4] = HPLC-RP retention time as measure of β-peptide hydrophobicity; type: physicochemical; conditions: used to sort the β-peptides by hydrophobicity
Method: Fig 1 i. Structures of antifungal β-peptides used in this study. The codification (#number) corresponds to the nomenclature used by Lee et al. in a previous publication. β-peptide (e) is a fluorescently labeled β-peptide. The C-terminus is amidated for all β-peptides. ii. HPLC-RP retention time for the β-peptides synthesized in this work, see Figs A-D in S1 File for further details. TEXT PRINTED IN THE PICTURE: (ii) #4: Retention time tR: 24.5 ± 0.2 min | (ii) #21: Retention time tR: 25.2 ± 0.2 min | (ii) #5: Retention time tR: 25.4 ± 0.1 min | (ii) #16: Retention time tR: 27.4 ± 0.2 min
The experiments compiled here establish structural-functional correlations of the β-peptides as a function of the cytotoxicity in mammalian cells other than erythrocytes.

[5] = tested on: Caco-2 cells; test: In vitro cytotoxicity, CellTiter Blue viability, dose-effect curves; type: cell-based; conditions: for IC50 Caco-2: 24 h
Method: as §1, §3

[6] = two independent times, each three biological replicates

SMILES: CC(C)[C@@H](CC(=O)N[C@@H](CCCCN)CC(N)=O)NC(=O)[C@H]1CCCC[C@@H]1NC(=O)C[C@H](CCCCN)NC(=O)C[C@@H](NC(=O)[C@H]1CCCC[C@@H]1NC(=O)C[C@H](CCCCN)NC(=O)C[C@@H](NC(=O)[C@H]1CCCC[C@@H]1N)C(C)C)C(C)C [#4, NH2-(ACHC-β^3hVal-β^3hLys)3]
surviving fraction (long-term) versus short-term viability [1]: no significant difference
plating efficiency of treated cells [1, 6]: > 9.5%
surviving fraction (long-term) versus short-term viability; colony forming ability ([2]; listed as (ACHC-β3hV-β3hK)): no significant difference; also recorded: slight decrease in colony forming ability
plating efficiency of treated cells [2, 6]: > 22%
IC50 HepG2 [3]: 38.75 ± 0.89 µg/mL (≈ 33.4 µM)
Retention time tR [4]: 24.5 ± 0.2 min
IC50 Caco-2 [5]: 27.33 ± 1.5 µg/mL (≈ 23.6 µM)

IC50 HepG2 [3]: 47.25 ± 5.12 µg/mL (≈ 38 µM)
Retention time tR [4]: 25.4 ± 0.1 min
SMILES: CC(C)[C@@H](CC(=O)N[C@@H](CCCNC(=N)N)CC(N)=O)NC(=O)[C@H]1CCCC[C@@H]1NC(=O)C[C@H](CCCNC(=N)N)NC(=O)C[C@@H](NC(=O)[C@H]1CCCC[C@@H]1NC(=O)C[C@H](CCCNC(=N)N)NC(=O)C[C@@H](NC(=O)[C@H]1CCCC[C@@H]1N)C(C)C)C(C)C [#5, NH2-(ACHC-β^3hVal-β^3hArg)3]
IC50 Caco-2 [5]: 43.33 ± 9.0 µg/mL (≈ 34.9 µM)

IC50 HepG2 [3]: 42.5 ± 6.21 µg/mL (≈ 28.7 µM)
SMILES: NCCCC[C@@H](CC(N)=O)NC(=O)C[C@H](Cc1ccccc1)NC(=O)[C@H]1CCCC[C@@H]1NC(=O)C[C@H](CCCCN)NC(=O)C[C@H](Cc1ccccc1)NC(=O)[C@H]1CCCC[C@@H]1NC(=O)C[C@H](CCCCN)NC(=O)C[C@H](Cc1ccccc1)NC(=O)[C@H]1CCCC[C@@H]1NC(=O)C[C@@H](N)Cc1ccc(O)cc1 [#16, NH2-β^3hTyr-(ACHC-β^3hPhe-β^3hLys)3]
cytotoxicity towards HepG2, dose-effect curve in words [3]: greatest toxic effect at these lower concentrations

IC50 HepG2 [3]: 52.5 ± 4.98 µg/mL (≈ 37.9 µM)
Retention time tR [4]: 25.2 ± 0.2 min
SMILES: CC(C)[C@@H](CC(=O)N[C@@H](CCCNC(=N)N)CC(=O)N[C@H](CC(=O)N[C@H](CC(=O)N[C@@H](CCCNC(=N)N)CC(=O)N[C@H](CC(=O)N[C@H](CC(=O)N[C@@H](CCCNC(=N)N)CC(N)=O)C(C)C)C(C)C)C(C)C)C(C)C)NC(=O)C[C@@H](NC(=O)C[C@@H](N)Cc1ccc(O)cc1)C(C)C [#21, NH2-β^3hTyr-(β^3hVal-β^3hVal-β^3hArg)3]
IC50 Caco-2 [5]: 31.33 ± 3.27 µg/mL (≈ 22.6 µM)

SMILES: C[C@@H]1[C@H](O)[C@@H](C)/C=C/C=C/C=C/C=C/C=C/C=C/C=C/[C@H](O[C@@H]2O[C@H](C)[C@@H](O)[C@H](N)[C@@H]2O)C[C@@H]2O[C@](O)(C[C@@H](O)C[C@@H](O)[C@H](O)CC[C@@H](O)C[C@@H](O)CC(=O)O[C@H]1C)C[C@H](O)[C@H]2C(=O)O [AmpB, Amphotericin B, reference compound]
cytotoxicity towards HepG2, dose-effect curve in words [3]: did not reach 100% cytotoxicity
IC30 HepG2 ([3]; 24 hours of exposure, from dose-effect curve): 30 µg/mL (≈ 32.5 µM)
inhibition at 30 µg/mL ([3]; Homo sapiens, HepG2, 30 μg/mL, 24 hours of exposure): 30%
cytotoxicity towards Caco-2, dose-effect curve in words ([5]; Caco-2): did not affect the viability

SMILES: CC(=O)N1CCN(c2ccc(OCC3COC(Cn4ccnc4)(c4ccc(Cl)cc4Cl)O3)cc2)CC1 (stereo not shown) [Keto, ketoconazole, reference compound]
IC50 ([3]; Homo sapiens, HepG2, 24 hours of exposure, CellTiter Blue, two independent experiments, each four replicates (n = 8)): 70 µg/mL (≈ 132 µM)
cytotoxicity towards Caco-2, dose-effect curve in words ([5]; 24 hours of exposure, tested concentration range): not statistically different than the response observed for HepG2

SMILES: COc1ccc2cc(C(=O)NCCOCCOCC(=O)N[C@H]3CCCC[C@@H]3C(=O)N[C@H](CC(=O)N[C@@H](CCCCN)CC(=O)N[C@H]3CCCC[C@@H]3C(=O)N[C@H](CC(=O)N[C@@H](CCCCN)CC(=O)N[C@H]3CCCC[C@@H]3C(=O)N[C@H](CC(=O)N[C@@H](CCCCN)CC(N)=O)C(C)C)C(C)C)C(C)C)c(=O)oc2c1 [coumarin-(ACHC-β3hV-β3hK)]
effect on viability at 16 μg/mL [3]: does not exert a significant effect on viability
